T/C data for 20 molecules are collected here from PubChem BioAssay AID248 (DTP/NCI, 2004).

“And” between values parts separate entries of the source, which are not always exact repeats. Identical values can stand only once. Toxic doses and inconclusive results are not listed.

The test system of this test is L1210 leukemia ip in BDF1 mice, survival T/C. Put plainly: NCI In Vivo Anticancer Drug Screen. Data for tumor model L1210 Leukemia (intraperitoneal) in B6D2F1 (BDF1) mice. Particulars: endpoint: mean survival time, higher = longer survival. An outline of the steps:
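Transplantable tumor model; survival measured in treated vs vehicle control mice. Value = treated/control.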

Where [1] appears, read: dose: 100.0 mg/kg/injection, schedule: Q01DX009 (ip), vehicle: Klucel (hydroxypropylcellulose) (HPC).
Setting [2] is: dose: 100.0 mg/kg/injection, schedule: Q04DX003 (ip), vehicle: Klucel (hydroxypropylcellulose) (HPC).
Setting [3] is: dose: 200.0 mg/kg/injection, schedule: Q01DX009 (ip), vehicle: Klucel (hydroxypropylcellulose) (HPC).
Setting [4] is: dose: 200.0 mg/kg/injection, schedule: Q04DX003 (ip), vehicle: Klucel (hydroxypropylcellulose) (HPC).
[5] abbreviates: dose: 400.0 mg/kg/injection, schedule: Q01DX009 (ip), vehicle: Klucel (hydroxypropylcellulose) (HPC).
Setting [6] is: dose: 400.0 mg/kg/injection, schedule: Q04DX003 (ip), vehicle: Klucel (hydroxypropylcellulose) (HPC).
Where [7] appears, read: dose: 100.0 mg/kg/injection, schedule: Q01DX009 (ip), vehicle: saline with Tween-80.
Where [8] appears, read: dose: 100.0 mg/kg/injection, schedule: Q04DX003 (ip), vehicle: saline with Tween-80.
Where [9] appears, read: dose: 200.0 mg/kg/injection, schedule: Q04DX003 (ip), vehicle: saline with Tween-80.
The mark [10] stands for this setting: dose: 400.0 mg/kg/injection, schedule: Q04DX003 (ip), vehicle: saline with Tween-80.
[11] abbreviates: dose: 100.0 mg/kg/injection, schedule: Q01DX001 (ip), vehicle: Klucel (hydroxypropylcellulose) (HPC).
The mark [12] stands for this setting: dose: 200.0 mg/kg/injection, schedule: Q01DX001 (ip), vehicle: Klucel (hydroxypropylcellulose) (HPC).
Setting [13] is: dose: 400.0 mg/kg/injection, schedule: Q01DX001 (ip), vehicle: Klucel (hydroxypropylcellulose) (HPC).

Turning to `Cc1ccnc(SCC(=O)O)n1`, the T/C is 108 % of control under setting [1]; 96 % of control under setting [2]; 95 % of control under setting [3]; 96 % of control under setting [4]; 90 % of control under setting [5]; 95 % of control under setting [6].

For the molecule `O=C(Nc1cccc(Cl)c1)Nc1cc(Cl)ccc1Cl`, the T/C is 92 % of control under setting [7]; 96 % of control under setting [8]; 90 % of control (dose: 200.0 mg/kg/injection, schedule: Q01DX009 (ip), vehicle: saline with Tween-80); 91 % of control under setting [9]; 94 % of control (dose: 400.0 mg/kg/injection, schedule: Q01DX009 (ip), vehicle: saline with Tween-80); 97 % of control under setting [10].

Consider `O=C(O)c1ccc(N=C=S)cc1O`, for which the T/C is 97 % of control under setting [11], 107 % of control under setting [12] and 97 % of control under setting [13].

For `CCCCN1CCCC(OC(=O)N(C)C)C1` (stereo not given), the T/C (dose: 25.0 mg/kg/injection, schedule: Q04DX002 (ip), vehicle: saline) was 105 % of control; the T/C (dose: 50.0 mg/kg/injection, schedule: Q04DX002 (ip), vehicle: saline) was 102 % of control; the T/C (dose: 100.0 mg/kg/injection, schedule: Q04DX002 (ip), vehicle: saline) is 97 % of control.

Regarding `CNC1=C(N2CC2C)C(=O)C(NC)=C(N2CC2C)C1=O` (stereo not given), the T/C reads like this: (dose: 0.31 mg/kg/injection, schedule: Q01DX009 (ip), vehicle: saline) 104 % of control and 108 % of control; (dose: 0.62 mg/kg/injection, schedule: Q01DX009 (ip), vehicle: saline) 104 % of control; (dose: 1.25 mg/kg/injection, schedule: Q01DX009 (ip), vehicle: saline) 114 % of control and 116 % of control; (dose: 1.56 mg/kg/injection, schedule: Q04DX003 (ip), vehicle: saline) 101 % of control; (dose: 2.5 mg/kg/injection, schedule: Q01DX009 (ip), vehicle: saline) 116 % of control; (dose: 3.12 mg/kg/injection, schedule: Q04DX003 (ip), vehicle: saline) 98 % of control and 111 % of control and 115 % of control. Further, the T/C runs as follows: (dose: 5.0 mg/kg/injection, schedule: Q01DX009 (ip), vehicle: saline) 169 % of control; (dose: 6.25 mg/kg/injection, schedule: Q04DX003 (ip), vehicle: saline) 109 % of control and 123 % of control; (dose: 10.0 mg/kg/injection, schedule: Q01DX001 (ip), vehicle: saline) 96 % of control; (dose: 10.0 mg/kg/injection, schedule: Q01DX009 (ip), vehicle: saline) 94 % of control and 119 % of control; (dose: 12.0 mg/kg/injection, schedule: Q04DX003 (ip), vehicle: saline) 152 % of control; (dose: 12.5 mg/kg/injection, schedule: Q04DX003 (ip), vehicle: saline) 152 % of control and 193 % of control. The T/C (dose: 25.0 mg/kg/injection, schedule: Q04DX003 (ip), vehicle: saline) was 96 % of control and 118 % of control; the T/C (dose: 50.0 mg/kg/injection, schedule: Q04DX003 (ip), vehicle: saline) was 98 % of control and 89 % of control.

In the case of `CCC1CC(O)c2ccccc2O1` (stereo not given), the T/C (dose: 100.0 mg/kg/injection, schedule: Q01DX001 (ip), vehicle: other) is 103 % of control; the T/C (dose: 200.0 mg/kg/injection, schedule: Q01DX001 (ip), vehicle: other) was 95 % of control; the T/C (dose: 400.0 mg/kg/injection, schedule: Q01DX001 (ip), vehicle: other) was 91 % of control.

Turning to `O=C1c2ccccc2C(=O)N1c1ccccc1O`, the T/C was 98 % of control (dose: 100.0 mg/kg/injection, schedule: Q04DX002 (ip), vehicle: Klucel (hydroxypropylcellulose) (HPC)); 102 % of control (dose: 200.0 mg/kg/injection, schedule: Q04DX002 (ip), vehicle: Klucel (hydroxypropylcellulose) (HPC)); 106 % of control (dose: 400.0 mg/kg/injection, schedule: Q04DX002 (ip), vehicle: Klucel (hydroxypropylcellulose) (HPC)).

Take `CC1=NN(c2ccccc2)C(=O)C1N=Nc1ccc(S(=O)(=O)Nc2nccc(C)n2)cc1` (stereo not given): the T/C (dose: 100.0 mg/kg/injection, schedule: Q01DX001 (ip), vehicle: carboxymethylcellulose (CMC)) was 98 % of control; the T/C (dose: 200.0 mg/kg/injection, schedule: Q01DX001 (ip), vehicle: carboxymethylcellulose (CMC)) was 98 % of control; the T/C (dose: 400.0 mg/kg/injection, schedule: Q01DX001 (ip), vehicle: carboxymethylcellulose (CMC)) is 88 % of control.

On to `O=C1CCC(=O)C2CC=CCC12` (stereo not given), for which the T/C by setting is: (dose: 100.0 mg/kg/injection, schedule: Q## X003 (ip), vehicle: saline) 101 % of control; (dose: 200.0 mg/kg/injection, schedule: Q## X003 (ip), vehicle: saline) 108 % of control; (dose: 400.0 mg/kg/injection, schedule: Q## X003 (ip), vehicle: saline) 98 % of control.

As to `COc1ccc(COc2ccc(OC)cc2)cc1`, the T/C is, setting by setting: under setting [8], 95 % of control; under setting [9], 96 % of control; under setting [10], 98 % of control.

Consider `O=S(O)c1cc(Br)ccc1Br`, for which the T/C under setting [1] is 97 % of control; the T/C under setting [2] was 93 % of control; the T/C under setting [3] is 113 % of control; the T/C under setting [4] was 104 % of control; the T/C under setting [6] is 94 % of control.

As for `Nc1nc(=O)n(CC(=O)c2cccs2)cc1F`, the T/C was 96 % of control (dose: 25.0 mg/kg/injection, schedule: Q01DX009 (ip), vehicle: saline with Tween-80); 98 % of control and 87 % of control (dose: 50.0 mg/kg/injection, schedule: Q01DX009 (ip), vehicle: saline with Tween-80); 96 % of control and 98 % of control under setting [7]; 97 % of control under setting [8]; 103 % of control under setting [9]; 97 % of control under setting [10].

With `Cc1ccc(-c2oc(-c3ccc(C)cc3)c3cc(C)c(C)cc23)cc1`, the T/C is 87 % of control under setting [11], 90 % of control under setting [12] and 88 % of control under setting [13].

Consider `Cc1c(N)c(C)c([N+](=O)[O-])c(C)c1N`, for which the T/C runs as follows: under setting [8], 91 % of control; under setting [9], 98 % of control; under setting [10], 98 % of control.

With `C[CH2][Sn]([Cl])([CH2]C)[O][Sn]([Cl])([CH2]C)[CH2]C`, the T/C runs as follows: (dose: 3.12 mg/kg/injection, schedule: Q04DX003 (ip), vehicle: saline with Tween-80) 100 % of control; (dose: 6.25 mg/kg/injection, schedule: Q04DX003 (ip), vehicle: saline with Tween-80) 100 % of control; (dose: 12.5 mg/kg/injection, schedule: Q04DX003 (ip), vehicle: saline with Tween-80) 106 % of control.

On to `CC(=O)[C@@]1(O)CC[C@H]2[C@@H]3C[C@H](C)C4=CC(=O)C=C[C@]4(C)[C@@]3(F)[C@@H](O)C[C@@]21C`, for which the T/C is 103 % of control (dose: 100.0 mg/kg/injection, schedule: Q01DX001 (sc), vehicle: steriod suspending solution); 115 % of control (dose: 100.0 mg/kg/injection, schedule: Q01DX009 (sc), vehicle: steriod suspending solution); 100 % of control (dose: 200.0 mg/kg/injection, schedule: Q01DX001 (sc), vehicle: steriod suspending solution); 108 % of control (dose: 200.0 mg/kg/injection, schedule: Q01DX009 (sc), vehicle: steriod suspending solution); 103 % of control (dose: 400.0 mg/kg/injection, schedule: Q01DX001 (sc), vehicle: steriod suspending solution); 111 % of control (dose: 400.0 mg/kg/injection, schedule: Q01DX009 (sc), vehicle: steriod suspending solution). For the same molecule, the T/C is 103 % of control (dose: 800.0 mg/kg/injection, schedule: Q01DX001 (sc), vehicle: steriod suspending solution) and 101 % of control (dose: 800.0 mg/kg/injection, schedule: Q01DX009 (sc), vehicle: steriod suspending solution).

Regarding `COc1ccc(NC(=O)Oc2ccc(Br)cc2Br)c(OC)c1`, the T/C is 108 % of control under setting [1] and 113 % of control under setting [3].

Take `CCCCNS(=O)(=O)c1ccc(C(N)=S)cc1`: the T/C is 111 % of control under setting [11], 106 % of control under setting [12] and 103 % of control under setting [13].

Regarding `CCOc1cc(/C=N/NC(=O)c2ccccc2NC(=O)c2ccccc2Cl)ccc1O`, the T/C is, setting by setting: under setting [1], 90 % of control; under setting [3], 95 % of control; under setting [5], 92 % of control.

Regarding `Cc1cccc(Cl)c1N=C=O`, the T/C reads like this: (dose: 100.0 mg/kg/injection, schedule: Q01DX001 (ip), vehicle: saline) 102 % of control; (dose: 200.0 mg/kg/injection, schedule: Q01DX001 (ip), vehicle: saline) 102 % of control.
